Holding throughout (experiment): biochemical
What all share (parameters): Thermo Fisher SelectScreen kinase panel: Z'-LYTE and Adapta activity, LanthaScreen binding
For orientation: In TR-FRET formats the signal depends on donor and acceptor labels being close together.

The target in one experiment is DYRK1A (Homo sapiens, UniProt Q13627). The gist of the method: (§1)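 Single-concentration panel: 10 µM GNE684 in KINOMEscan scanMAX binding (468 kinases) and in a 221-kinase panel run as Z'-LYTE/Adapta activity or LanthaScreen binding assays.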
The target in another experiment is MAPKAPK2 (Homo sapiens, UniProt P49137). The gist of the method: as §1
The next experiment concerns the target TXK (Homo sapiens, UniProt P42681). In outline:
as §1

Another experiment concerns the target RIPK3 (Homo sapiens, UniProt Q9Y572). The gist of the method: as §1
The target in the next experiment is EPHA1 (Homo sapiens, UniProt P21709). In outline: as §1
In the next experiment the target is BMPR1A (Homo sapiens, UniProt P36894). The gist of the method: as §1
A further experiment has as its target T1, CamKII_alpha (Homo sapiens, UniProt Q9UQM7).
T1 construct: gene CAMK2A
In outline: as §1

The next experiment addresses DAPK1 (Homo sapiens, UniProt P53355). The gist of the method:
as §1

In a further experiment the target is T2, RSK2 (Homo sapiens, UniProt P51812).
T2 construct: gene RPS6KA3
The gist of the method:
as §1

The target in another experiment is FES (Homo sapiens, UniProt P07332). In outline:
as §1

In another experiment the target is T3, CDK5/p25 (Homo sapiens, UniProt Q00535).
T3 construct: p25
The gist of the method:
as §1

In the next experiment the target is KIT (Homo sapiens, UniProt P10721). In outline:
as §1

For another experiment, the target named is CSK (Homo sapiens, UniProt P41240). The gist of the method: as §1
In the next experiment the target is IRAK1 (Homo sapiens, UniProt P51617). The gist of the method:
as §1

The target in a further experiment is T4, eEF-2K (Homo sapiens, UniProt O00418).
T4 construct: gene EEF2K
In outline:
as §1

The next experiment concerns the target T5, CamKIV (Homo sapiens, UniProt Q16566).
T5 construct: gene CAMK4
The gist of the method:
as §1

In a further experiment the target is NEK4 (Homo sapiens, UniProt P51957). In outline:
as §1

In a further experiment the target is KDR (Homo sapiens, UniProt P35968). The gist of the method:
as §1

A further experiment has as its target T6, IRR (Homo sapiens, UniProt P14616).
T6 construct: gene INSRR
The gist of the method:
as §1

The next experiment deals with T7, MYLK(smMLCK) (Homo sapiens, UniProt Q15746).
T7 construct: smooth muscle MLCK
In outline: as §1

The next experiment has as its target SPHK1 (Homo sapiens, UniProt Q9NYA1). In outline:
as §1

Another experiment addresses T8, p38-beta (Homo sapiens, UniProt Q15759).
T8 construct: gene MAPK11
The gist of the method: as §1

For a further experiment, the target named is T9, MEK1 (Homo sapiens, UniProt Q02750).
T9 construct: gene MAP2K1
The gist of the method:
as §1

T4 sequence (O00418 whole entry): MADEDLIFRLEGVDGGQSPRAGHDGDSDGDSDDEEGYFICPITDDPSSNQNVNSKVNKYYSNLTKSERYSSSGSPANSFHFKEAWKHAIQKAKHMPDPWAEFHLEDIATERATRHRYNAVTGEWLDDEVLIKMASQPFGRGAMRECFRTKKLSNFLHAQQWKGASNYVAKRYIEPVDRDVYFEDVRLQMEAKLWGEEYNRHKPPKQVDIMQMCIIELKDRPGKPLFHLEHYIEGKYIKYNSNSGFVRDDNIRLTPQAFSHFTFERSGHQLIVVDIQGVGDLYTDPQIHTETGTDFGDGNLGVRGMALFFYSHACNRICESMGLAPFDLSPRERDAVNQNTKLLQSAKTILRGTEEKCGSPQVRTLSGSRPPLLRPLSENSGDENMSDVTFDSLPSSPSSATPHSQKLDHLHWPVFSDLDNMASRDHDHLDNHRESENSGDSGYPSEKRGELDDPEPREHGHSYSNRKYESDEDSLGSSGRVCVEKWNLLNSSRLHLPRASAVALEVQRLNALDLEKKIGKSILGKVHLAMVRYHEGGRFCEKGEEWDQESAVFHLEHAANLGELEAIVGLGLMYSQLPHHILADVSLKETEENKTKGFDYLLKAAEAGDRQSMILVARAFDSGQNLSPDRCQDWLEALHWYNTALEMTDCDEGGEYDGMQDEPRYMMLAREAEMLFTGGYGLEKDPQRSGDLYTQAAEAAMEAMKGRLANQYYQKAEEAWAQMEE
Sequence of FES (P07332 whole entry): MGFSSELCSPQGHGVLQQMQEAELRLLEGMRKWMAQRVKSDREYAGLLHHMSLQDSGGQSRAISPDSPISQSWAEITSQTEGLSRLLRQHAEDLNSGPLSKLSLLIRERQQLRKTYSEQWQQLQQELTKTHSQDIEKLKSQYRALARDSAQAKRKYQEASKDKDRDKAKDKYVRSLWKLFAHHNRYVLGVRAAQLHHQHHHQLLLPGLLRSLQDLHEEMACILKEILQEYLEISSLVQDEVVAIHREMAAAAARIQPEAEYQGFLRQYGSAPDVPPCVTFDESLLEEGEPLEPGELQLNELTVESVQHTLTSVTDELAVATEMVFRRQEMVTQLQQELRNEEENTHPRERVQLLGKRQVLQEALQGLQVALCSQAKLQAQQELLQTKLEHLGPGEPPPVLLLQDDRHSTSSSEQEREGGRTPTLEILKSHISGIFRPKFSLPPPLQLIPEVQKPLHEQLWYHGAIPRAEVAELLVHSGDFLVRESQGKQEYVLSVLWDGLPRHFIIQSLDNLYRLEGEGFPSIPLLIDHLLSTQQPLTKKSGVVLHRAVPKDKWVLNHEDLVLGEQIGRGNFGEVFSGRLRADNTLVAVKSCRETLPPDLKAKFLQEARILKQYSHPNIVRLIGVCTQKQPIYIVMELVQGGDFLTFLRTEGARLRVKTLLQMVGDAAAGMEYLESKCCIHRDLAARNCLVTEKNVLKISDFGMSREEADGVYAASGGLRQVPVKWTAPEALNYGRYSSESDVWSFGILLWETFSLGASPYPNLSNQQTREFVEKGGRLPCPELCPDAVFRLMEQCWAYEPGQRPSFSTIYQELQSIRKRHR
Sequence of CSK (P41240 whole entry): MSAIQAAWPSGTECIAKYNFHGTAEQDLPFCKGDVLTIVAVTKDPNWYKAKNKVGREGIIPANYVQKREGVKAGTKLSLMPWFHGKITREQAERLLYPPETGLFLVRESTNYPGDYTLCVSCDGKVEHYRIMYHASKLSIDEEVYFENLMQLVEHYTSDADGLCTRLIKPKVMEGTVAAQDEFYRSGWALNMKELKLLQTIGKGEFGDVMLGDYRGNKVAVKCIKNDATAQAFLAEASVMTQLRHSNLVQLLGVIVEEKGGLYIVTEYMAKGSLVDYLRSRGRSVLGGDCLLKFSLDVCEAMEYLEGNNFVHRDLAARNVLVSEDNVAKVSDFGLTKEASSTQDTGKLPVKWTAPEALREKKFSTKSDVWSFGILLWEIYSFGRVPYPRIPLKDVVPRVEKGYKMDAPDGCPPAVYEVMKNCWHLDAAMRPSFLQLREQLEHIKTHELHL
Sequence of MAPKAPK2 (P49137 whole entry): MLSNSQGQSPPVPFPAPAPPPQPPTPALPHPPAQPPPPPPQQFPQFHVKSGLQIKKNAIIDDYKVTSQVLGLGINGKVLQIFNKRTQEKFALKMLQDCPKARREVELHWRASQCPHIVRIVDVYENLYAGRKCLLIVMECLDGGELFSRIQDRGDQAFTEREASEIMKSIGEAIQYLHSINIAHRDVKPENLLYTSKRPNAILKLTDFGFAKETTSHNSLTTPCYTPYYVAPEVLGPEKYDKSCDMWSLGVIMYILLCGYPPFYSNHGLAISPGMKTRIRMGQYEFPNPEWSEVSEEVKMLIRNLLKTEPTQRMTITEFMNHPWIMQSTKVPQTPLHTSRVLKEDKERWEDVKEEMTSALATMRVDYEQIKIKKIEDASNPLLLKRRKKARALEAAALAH
Sequence of TXK (P42681 whole entry): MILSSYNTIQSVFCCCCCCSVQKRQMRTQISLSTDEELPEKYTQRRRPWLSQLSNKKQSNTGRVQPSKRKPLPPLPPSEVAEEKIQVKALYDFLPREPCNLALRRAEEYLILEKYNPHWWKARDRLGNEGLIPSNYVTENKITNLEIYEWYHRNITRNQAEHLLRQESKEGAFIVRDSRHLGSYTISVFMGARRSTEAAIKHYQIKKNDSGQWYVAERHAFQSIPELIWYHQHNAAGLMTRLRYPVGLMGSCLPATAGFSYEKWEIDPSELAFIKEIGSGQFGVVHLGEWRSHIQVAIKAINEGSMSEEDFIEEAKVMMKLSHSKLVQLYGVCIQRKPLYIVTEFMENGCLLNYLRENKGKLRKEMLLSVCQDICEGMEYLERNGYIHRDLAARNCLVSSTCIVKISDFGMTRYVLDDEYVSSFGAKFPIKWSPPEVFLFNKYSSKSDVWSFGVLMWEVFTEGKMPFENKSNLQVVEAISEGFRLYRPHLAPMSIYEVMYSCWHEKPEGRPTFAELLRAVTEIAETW
T6 sequence (P14616 whole entry): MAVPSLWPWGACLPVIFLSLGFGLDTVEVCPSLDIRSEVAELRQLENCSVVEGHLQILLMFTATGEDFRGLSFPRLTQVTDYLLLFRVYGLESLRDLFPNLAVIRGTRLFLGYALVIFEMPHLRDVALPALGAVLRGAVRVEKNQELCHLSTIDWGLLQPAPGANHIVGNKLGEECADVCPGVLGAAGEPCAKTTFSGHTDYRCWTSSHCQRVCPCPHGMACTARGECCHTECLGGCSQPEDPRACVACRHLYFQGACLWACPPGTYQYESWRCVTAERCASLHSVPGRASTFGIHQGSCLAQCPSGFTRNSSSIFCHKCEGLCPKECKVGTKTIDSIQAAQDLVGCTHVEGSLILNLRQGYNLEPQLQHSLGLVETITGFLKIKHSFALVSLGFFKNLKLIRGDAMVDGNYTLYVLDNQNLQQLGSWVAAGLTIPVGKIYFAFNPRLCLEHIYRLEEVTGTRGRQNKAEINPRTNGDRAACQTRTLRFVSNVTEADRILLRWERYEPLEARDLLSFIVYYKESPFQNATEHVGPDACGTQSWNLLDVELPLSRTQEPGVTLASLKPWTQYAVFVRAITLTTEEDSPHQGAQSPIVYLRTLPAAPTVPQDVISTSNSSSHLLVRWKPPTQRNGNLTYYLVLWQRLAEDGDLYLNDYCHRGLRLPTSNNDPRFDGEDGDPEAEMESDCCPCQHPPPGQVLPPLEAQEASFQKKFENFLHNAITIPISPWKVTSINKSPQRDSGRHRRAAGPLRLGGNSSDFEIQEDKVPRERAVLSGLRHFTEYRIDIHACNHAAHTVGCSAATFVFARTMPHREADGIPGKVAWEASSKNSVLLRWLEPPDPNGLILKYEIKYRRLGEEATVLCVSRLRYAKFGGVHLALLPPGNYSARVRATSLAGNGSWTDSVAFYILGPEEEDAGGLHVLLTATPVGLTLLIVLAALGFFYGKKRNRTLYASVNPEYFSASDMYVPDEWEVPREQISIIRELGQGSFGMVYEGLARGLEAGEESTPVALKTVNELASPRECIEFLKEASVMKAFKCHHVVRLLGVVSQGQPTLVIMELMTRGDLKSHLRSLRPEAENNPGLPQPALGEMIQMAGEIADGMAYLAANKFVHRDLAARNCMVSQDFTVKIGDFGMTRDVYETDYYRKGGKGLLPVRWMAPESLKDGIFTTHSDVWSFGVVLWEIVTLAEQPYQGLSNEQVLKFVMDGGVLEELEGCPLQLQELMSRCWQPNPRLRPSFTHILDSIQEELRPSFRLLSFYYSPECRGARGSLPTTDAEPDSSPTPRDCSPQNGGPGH
Sequence of RIPK3 (Q9Y572 whole entry): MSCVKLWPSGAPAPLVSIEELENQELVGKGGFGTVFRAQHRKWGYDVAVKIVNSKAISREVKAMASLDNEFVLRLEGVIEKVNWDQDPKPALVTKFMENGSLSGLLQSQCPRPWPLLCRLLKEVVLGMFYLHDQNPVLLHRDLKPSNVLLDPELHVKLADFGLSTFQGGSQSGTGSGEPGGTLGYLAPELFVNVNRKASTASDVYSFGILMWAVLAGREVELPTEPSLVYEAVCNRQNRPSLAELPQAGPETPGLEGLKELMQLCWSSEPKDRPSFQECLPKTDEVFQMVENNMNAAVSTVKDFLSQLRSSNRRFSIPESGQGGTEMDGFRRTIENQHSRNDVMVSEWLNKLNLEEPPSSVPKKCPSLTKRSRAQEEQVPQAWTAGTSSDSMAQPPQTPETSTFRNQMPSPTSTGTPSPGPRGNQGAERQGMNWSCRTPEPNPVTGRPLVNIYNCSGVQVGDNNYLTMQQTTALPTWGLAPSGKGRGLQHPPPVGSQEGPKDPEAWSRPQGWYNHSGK

Turning to `COc1cc2c(cn1)N(C)C(=O)[C@@H](NC(=O)c1nc3n(n1)[C@H](c1ccccc1)CC3)CC2` [GNE684, (S)-N-((S)-7-methoxy-1-methyl-2-oxo-2,3,4,5-tetrahydro-1H-pyrido[3,4-b]azepin-3-yl)-5-phenyl-6,7-dihydro-5H-pyrrolo[1,2-b][1,2,4]triazole-2-carboxamide], the inhibition at 10 µM was 2% on DYRK1A; 4.5% on MAPKAPK2; 5.5% at TXK; -3% on RIPK3; 9.5% on EPHA1; -4.5% on BMPR1A. The inhibition at 10 µM is 6.5% at CamKII_alpha; -11.5% on DAPK1; 4% at RSK2; 3% on FES; 4.5% on CDK5/p25; 3% on KIT. In addition, the inhibition at 10 µM at CSK is -1.5%; at IRAK1 it was -10.5%; at eEF-2K, 0%; at CamKIV it was -1%; on NEK4, 4.5%; on KDR it was -0.5%. Also, the inhibition at 10 µM on IRR was 12%; on MYLK(smMLCK) it was -5%; at SPHK1, 4.5%; on p38-beta, 4.5%; on MEK1, -7.5%.

By inhibition is commonly meant the drop in the measured response relative to a control, in per cent.
